Test results taken from ChEMBL document CHEMBL6153155, “Novel Cyclohexyl Amido Acid Antagonists of Lysophosphatidic Acid Type 1 Receptor for the Treatment of Pulmonary Fibrosis” (ACS Med Chem Lett, 2025).
pIC50: −log10 of the molar value. Values after ≈ are worked out from the molar mass of the structure shown.

What was measured:
[1] = Aqueous solubility of the compound at pH 7.4; assay type: physicochemical; settings: buffer
[2] = molecular target: T1, Lysophosphatidic acid receptor 3 (Homo sapiens, UniProt Q9UBY5); experiment: Antagonist activity at human LPA3 expressed in human HeLa cells incubated for 30 mins by FLIPR-based calcium mobilization assay; assay type: functional, cell-based
T1 sequence (Q9UBY5 whole entry): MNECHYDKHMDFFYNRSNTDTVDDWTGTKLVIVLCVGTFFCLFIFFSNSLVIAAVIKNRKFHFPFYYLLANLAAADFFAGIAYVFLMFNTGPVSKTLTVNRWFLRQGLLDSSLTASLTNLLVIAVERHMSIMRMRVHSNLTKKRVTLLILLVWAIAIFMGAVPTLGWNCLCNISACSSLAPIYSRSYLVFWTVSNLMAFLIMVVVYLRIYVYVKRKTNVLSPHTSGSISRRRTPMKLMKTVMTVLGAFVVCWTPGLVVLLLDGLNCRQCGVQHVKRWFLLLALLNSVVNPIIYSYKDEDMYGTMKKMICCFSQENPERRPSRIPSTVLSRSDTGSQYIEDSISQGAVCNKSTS

[3] = molecular target: Lysophosphatidic acid receptor 4 (Homo sapiens, UniProt Q99677); experiment: Antagonist activity at human LPA4 expressed in CHO cells in presence of IBMX pretreated for 30 mins followed by LPA addition and measured after 1 hrs by cAMP accumulation assay; assay type: functional, cell-based
Chain of Lysophosphatidic acid receptor 4 (Q99677 whole entry): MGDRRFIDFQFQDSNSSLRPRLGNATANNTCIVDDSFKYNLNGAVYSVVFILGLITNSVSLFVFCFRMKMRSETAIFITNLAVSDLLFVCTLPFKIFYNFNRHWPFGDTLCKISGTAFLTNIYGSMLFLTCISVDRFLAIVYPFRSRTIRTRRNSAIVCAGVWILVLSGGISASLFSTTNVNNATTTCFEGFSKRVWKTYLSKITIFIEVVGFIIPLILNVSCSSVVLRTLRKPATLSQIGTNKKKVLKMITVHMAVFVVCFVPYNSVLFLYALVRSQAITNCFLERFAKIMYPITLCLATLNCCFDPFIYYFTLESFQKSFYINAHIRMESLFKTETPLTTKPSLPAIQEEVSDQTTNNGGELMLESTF

[4] = molecular target: T2, ATP-binding cassette sub-family C member 4 (Homo sapiens, UniProt O15439); experiment: Inhibition of MRP4 (unknown origin) in presence of ATP by membrane vesicular transport assay; assay type: cell membranes, Membrane vesicle
T2 sequence (O15439 whole entry): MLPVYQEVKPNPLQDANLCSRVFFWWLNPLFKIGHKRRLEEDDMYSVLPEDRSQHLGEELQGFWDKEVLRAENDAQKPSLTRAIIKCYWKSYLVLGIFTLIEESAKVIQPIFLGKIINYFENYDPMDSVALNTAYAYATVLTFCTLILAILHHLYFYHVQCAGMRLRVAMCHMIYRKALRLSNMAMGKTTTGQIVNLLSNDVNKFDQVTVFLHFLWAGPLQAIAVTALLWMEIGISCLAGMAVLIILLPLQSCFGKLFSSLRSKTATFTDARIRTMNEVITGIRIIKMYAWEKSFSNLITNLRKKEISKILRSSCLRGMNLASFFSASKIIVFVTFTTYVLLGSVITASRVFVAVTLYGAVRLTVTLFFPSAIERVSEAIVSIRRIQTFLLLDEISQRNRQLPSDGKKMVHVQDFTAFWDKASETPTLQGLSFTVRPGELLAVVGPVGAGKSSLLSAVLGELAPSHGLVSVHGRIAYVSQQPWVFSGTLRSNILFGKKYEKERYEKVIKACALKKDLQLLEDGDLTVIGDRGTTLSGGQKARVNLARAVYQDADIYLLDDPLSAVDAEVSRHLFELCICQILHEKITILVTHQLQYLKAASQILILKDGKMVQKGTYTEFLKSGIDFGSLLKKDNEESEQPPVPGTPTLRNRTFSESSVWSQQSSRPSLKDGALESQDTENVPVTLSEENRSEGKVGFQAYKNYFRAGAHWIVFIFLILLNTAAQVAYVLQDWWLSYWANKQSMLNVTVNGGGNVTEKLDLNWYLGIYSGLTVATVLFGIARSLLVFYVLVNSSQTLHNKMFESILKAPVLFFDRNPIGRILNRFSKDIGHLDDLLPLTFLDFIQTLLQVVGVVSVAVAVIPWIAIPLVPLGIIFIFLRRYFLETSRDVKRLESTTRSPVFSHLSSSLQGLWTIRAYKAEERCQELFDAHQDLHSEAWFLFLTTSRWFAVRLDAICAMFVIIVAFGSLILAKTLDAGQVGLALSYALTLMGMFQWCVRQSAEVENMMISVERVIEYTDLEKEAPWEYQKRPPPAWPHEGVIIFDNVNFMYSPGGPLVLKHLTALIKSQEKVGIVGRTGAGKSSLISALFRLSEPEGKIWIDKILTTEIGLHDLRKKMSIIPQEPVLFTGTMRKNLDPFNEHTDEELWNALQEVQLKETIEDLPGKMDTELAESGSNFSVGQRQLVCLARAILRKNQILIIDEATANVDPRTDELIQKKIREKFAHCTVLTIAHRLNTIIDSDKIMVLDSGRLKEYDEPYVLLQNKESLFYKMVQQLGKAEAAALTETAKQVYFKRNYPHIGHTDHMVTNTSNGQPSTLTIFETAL

[5] = molecular target: T3, Solute carrier organic anion transporter family member 1B3 (Homo sapiens, UniProt Q9NPD5); experiment: Inhibition of human OATP1B3 in HEK293 cells; assay type: cell-based
T3 sequence (Q9NPD5 whole entry): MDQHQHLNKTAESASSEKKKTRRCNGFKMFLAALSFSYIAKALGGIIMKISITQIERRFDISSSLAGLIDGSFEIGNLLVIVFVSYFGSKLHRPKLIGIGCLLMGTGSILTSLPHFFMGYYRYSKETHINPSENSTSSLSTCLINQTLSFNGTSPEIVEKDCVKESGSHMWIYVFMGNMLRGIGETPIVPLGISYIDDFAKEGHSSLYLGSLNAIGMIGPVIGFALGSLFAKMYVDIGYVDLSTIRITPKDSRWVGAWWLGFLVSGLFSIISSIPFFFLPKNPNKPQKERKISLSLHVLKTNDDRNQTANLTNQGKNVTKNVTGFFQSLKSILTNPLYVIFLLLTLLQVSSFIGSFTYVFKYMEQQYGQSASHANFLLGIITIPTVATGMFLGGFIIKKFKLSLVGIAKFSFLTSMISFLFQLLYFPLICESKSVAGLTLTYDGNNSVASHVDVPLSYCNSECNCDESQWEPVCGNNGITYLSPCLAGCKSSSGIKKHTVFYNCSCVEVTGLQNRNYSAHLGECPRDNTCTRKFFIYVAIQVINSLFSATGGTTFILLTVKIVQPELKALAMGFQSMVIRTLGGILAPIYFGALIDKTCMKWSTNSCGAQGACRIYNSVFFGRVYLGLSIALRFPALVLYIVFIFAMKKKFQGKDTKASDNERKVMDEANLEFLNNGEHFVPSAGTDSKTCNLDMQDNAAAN

[6] = Toxicity in cynomolgus monkey assessed as drug tolerance at 12.5 to 100 mg/kg/day, po bid measured after 4 days; assay type: organism-based, Macaca fascicularis; settings: in vivo, 96 h, dose 12.5-100 mg/kg/day, time 4 day
[7] = Toxicity in cynomolgus monkey assessed as piloerection at 210 mg/kg/day, po bid measured after 4 days; assay type: organism-based, Macaca fascicularis; settings: in vivo, 96 h, time 4 day
[8] = Toxicity in cynomolgus monkey assessed as decreased activity at 210 mg/kg/day, po bid measured after 4 days; assay type: organism-based, Macaca fascicularis; settings: in vivo, 96 h, time 4 day
[9] = Oral bioavailability in female C57BL/6J mouse at 2 mg/kg, iv measured after 24 hrs by UPLC-MS/MS analysis; assay type: ADME, organism-based; settings: in vivo
[10] = Unbound Cmax in female C57BL/6J mouse lung at 30 mg/kg, po measured after 24 hrs by UPLC-MS/MS analysis; assay type: ADME, organism-based; settings: in vivo
[11] = Tlast in female C57BL/6J mouse lung at 30 mg/kg, po measured after 24 hrs by UPLC-MS/MS analysis; assay type: ADME, organism-based; settings: in vivo

solubility [1]: 505 µM (≈ 273 µg/mL) | pIC50 [2]: 4.43 | pIC50 [3]: 4.90 | pIC50 [4]: 4.20 | pIC50 [5]: 5.10 | bioavailability [9]: 100% | fCmax [10]: 1553 ng/mL | Tlast [11]: 24 h
SMILES: Cc1nc(-c2onc(C)c2NC(=O)O[C@H](C)c2ccccc2Cl)ccc1NC(=O)[C@H]1CCCC[C@@H]1C(=O)O
Activity [6]: Non-toxic | Activity [7]: Toxic | Activity [8]: Toxic
